For the first experiment, the target named is T1, human MGL from HeLa cells (Homo sapiens, UniProt Q99685).
T1 construct: combining endogenously expressed MGL from HeLa cells with test compounds; endogenous in cells; host or cells: HeLa cells / cell homogenates
T1 sequence (Q99685 1-303): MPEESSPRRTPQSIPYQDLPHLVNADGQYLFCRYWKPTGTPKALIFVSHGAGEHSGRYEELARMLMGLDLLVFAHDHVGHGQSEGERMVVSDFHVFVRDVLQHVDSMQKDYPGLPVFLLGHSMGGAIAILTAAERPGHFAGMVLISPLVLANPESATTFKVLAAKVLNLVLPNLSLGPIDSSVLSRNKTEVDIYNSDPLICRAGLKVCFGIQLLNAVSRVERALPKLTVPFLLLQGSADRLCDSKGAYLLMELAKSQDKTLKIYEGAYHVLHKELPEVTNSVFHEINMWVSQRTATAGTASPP
The experiment in a line: In vitro MGL activity assay: [glycerol-1,3-3H]-oleyl glycerol cleavage by MGL from HeLa cells. The class given is biochemical. The settings on record: 300 nM [Glycerol-1,3-3H]-oleyl glycerol, one hour. An excerpt: MGL is the predominant hydrolase in HeLa cells/cell homogenates.
The molecule `COc1nccc(C(=O)N2CCc3c(nn(C)c3-c3cccc(C(C)(F)F)c3)[C@@H]2C)c1C` [Example 594, [(7S)-3-[3-(1,1-Difluoroethyl)phenyl]-2,7-dimethyl-5,7-dihydro-4H-pyrazolo[3,4-c]pyridin-6-yl]-(2-methoxy-3-methyl-4-pyridyl)methanone] returned an IC50 of 335 nM. This counts as sub-micromolar. `C[C@H]1c2nn(C)c(-c3cc(F)c(F)c(F)c3)c2CCN1C(=O)c1cccc2c1oc(=O)n2C` [Example 589, 7-[(7S)-2,7-dimethyl-3-(3,4,5-trifluorophenyl)-5,7-dihydro-4H-pyrazolo[3,4-c]pyridine-6-carbonyl]-3-methyl-1,3-benzoxazol-2-one] had an IC50 of 1.84 nM. Still for that read-out and setting: next, `C[C@H]1c2nn(C)c(-c3cc(F)c(F)c(F)c3)c2CCN1C(=O)c1ccnc2[nH]cc(F)c12` [Example 605, [(7S)-2,7-Dimethyl-3-(3,4,5-trifluorophenyl)-5,7-dihydro-4H-pyrazolo[3,4-c]pyridin-6-yl]-(3-fluoro-1H-pyrrolo[2,3-b]pyridin-4-yl)methanone]: 1.1 nM; `C[C@@H]1c2nn(-c3ccccc3)c(-c3ccccc3)c2CCN1C(=O)c1cnn(C)c1C1CC1` [Example 349, (R)-(5-cyclopropyl-1-methyl-1H-pyrazol-4-yl) (7-methyl-2,3-diphenyl-2,4,5,7-tetrahydro-6H-pyrazolo[3,4-c]pyridin-6-yl) methanone]: 1080 nM; `Cc1cc(C(=O)N2CCc3c(nn(C)c3-c3cc(F)c(F)c(F)c3)[C@@H]2C)c2cnn(C)c2n1` [Example 424, (1,6-Dimethylpyrazolo[3,4-b]pyridin-4-yl)-[(7S)-2,7-dimethyl-3-(3,4,5-trifluorophenyl)-5,7-dihydro-4H-pyrazolo[3,4-c]pyridin-6-yl]methanone]: 10.7 nM. On to `C[C@H]1c2nn(C)c(-c3cccc4scnc34)c2CCN1C(=O)c1ccc2ncccc2c1` [Example 537, [(7S)-3-(1,3-Benzothiazol-4-yl)-2,7-dimethyl-5,7-dihydro-4H-pyrazolo[3,4-c]pyridin-6-yl]-(6-quinolyl)methanone], for which half-maximal inhibition (IC50) required 33 nM. This IC50 is about 3.1-fold higher than that of the molecule before. The same measure, in the same setting: for `Cc1c(C(=O)N2CCc3c(nn(C)c3-c3cc(F)c(F)c(F)c3)[C@@H]2C)nc2ccccn12` [Example 398, [(7S)-2,7-Dimethyl-3-(3,4,5-trifluorophenyl)-5,7-dihydro-4H-pyrazolo[3,4-c]pyridin-6-yl]-(3-methylimidazo[1,2-a]pyridin-2-yl)methanone] the value was 248 nM; for `Cc1cc(F)cc(-c2c3c(nn2C)[C@H](C)N(C(=O)c2ncnc4c2ccn4C)CC3)c1` [Example 465, [(7S)-3-(3-Fluoro-5-methyl-phenyl)-2,7-dimethyl-5,7-dihydro-4H-pyrazolo[3,4-c]pyridin-6-yl]-(7-methylpyrrolo[2,3-d]pyrimidin-4-yl) methanone], 8.46 nM.

Molecule `C[C@H]1c2nn(C)c(-c3cc(F)c(F)c(F)c3)c2CCN1C(=O)c1cncc2ncccc12` [Example 489] yielded an IC50 of 30 nM. `Cc1c[nH]c2ncnc(C(=O)N3CCc4c(nn(C)c4-c4cc(F)c(F)c(F)c4)[C@@H]3C)c12` [Example 464, [(7S)-2,7-Dimethyl-3-(3,4,5-trifluorophenyl)-5,7-dihydro-4H-pyrazolo[3,4-c]pyridin-6-yl]-(5-methyl-7H-pyrrolo[2,3-d]pyrimidin-4-yl)methanone]: the IC50 is 31.4 nM.

With `Cc1ccnc2ccc(C(=O)N3CCc4c(nn(C)c4-c4cc(F)c(F)c(F)c4)[C@@H]3C)cc12` [Example 549, [(7S)-2,7-Dimethyl-3-(3,4,5-trifluorophenyl)-5,7-dihydro-4H-pyrazolo[3,4-c]pyridin-6-yl]-(4-methyl-6-quinolyl)methanone], the IC50 was found to be 1.99 nM. On the same count and under the same terms, for `COc1cc(Cl)cc(-c2c3c(nn2C)[C@H](C)N(C(=O)c2ccc4ncccc4c2)CC3)c1` [Example 513, [(7S)-3-(3-Chloro-5-methoxy-phenyl)-2,7-dimethyl-5,7-dihydro-4H-pyrazolo[3,4-c]pyridin-6-yl]-(6-quinolyl)methanone] the value was 10.5 nM. On the same count and under the same terms, next, `C[C@H]1c2nn(C)c(-c3cc(F)c(F)c(F)c3)c2CCN1C(=O)c1ccn2ncc(F)c2c1` [Example 378, [(7S)-2,7-Dimethyl-3-(3,4,5-trifluorophenyl)-5,7-dihydro-4H-pyrazolo[3,4-c]pyridin-6-yl]-(3-fluoropyrazolo[1,5-a]pyridin-5-yl)methanone]: 38.8 nM; `Cc1cc(C(=O)N2CCc3c(nn(C)c3-c3cc(F)c(F)c(F)c3)[C@@H]2C)n2ncnc2n1` [Example 472, [(7S)-2,7-Dimethyl-3-(3,4,5-trifluorophenyl)-5,7-dihydro-4H-pyrazolo[3,4-c]pyridin-6-yl]-(5-methyl-[1,2,4]triazolo[1,5-a]pyrimidin-7-yl)methanone]: 1560 nM. In turn, `C[C@H]1c2nn(C)c(-c3cc(F)c(F)c(F)c3)c2CCN1C(=O)c1cnc2c(c1)OCCN2C` [Example 572, [(7S)-2,7-Dimethyl-3-(3,4,5-trifluorophenyl)-5,7-dihydro-4H-pyrazolo[3,4-c]pyridin-6-yl]-(4-methyl-2,3-dihydropyrido[3,2-b][1,4]oxazin-7-yl)methanone] showed a half-inhibitory concentration (IC50) of 51.9 nM.

Staying with this experiment, now noted: 300 nM [Glycerol-1,3-3H]-oleyl glycerol, one hour incubation.
The molecule `C[C@H]1c2nn(C)c(-c3cc(F)cc(F)c3)c2CCN1C(=O)c1ccccc1OCCF` [Example 137, [(7S)-3-(3,5-Difluorophenyl)-2,7-dimethyl-5,7-dihydro-4H-pyrazolo[3,4-c]pyridin-6-yl]-[2-(2-fluoroethoxy)phenyl]methanone] displayed an IC50 of 240 nM. Still for that read-out and setting: for `CC1c2nn(C)c(-c3cccc4ccn(C)c34)c2CCN1C(=O)c1ccc2ncccc2c1` (stereo not shown) [Example 253, (2,7-Dimethyl-3-(1-methyl-1H-indol-7-yl)-2,4,5,7-tetrahydro-6H-pyrazolo[3,4-c]pyridin-6-yl)(quinolin-6-yl)methanone] the value was 1610 nM; for `C[C@H]1c2nn(C)c(-c3cc(F)c(F)c(F)c3)c2CCN1C(=O)c1ccc2c(c1)N(C)C(=O)CO2` [Example 204, (S)-6-(2,7-Dimethyl-3-(3,4,5-trifluorophenyl)-4,5,6,7-tetrahydro-2H-pyrazolo[3,4-c]pyridine-6-carbonyl)-4-methyl-2H-benzo[b][1,4]oxazin-3(4H)-one], 17.7 nM; for `C[C@@H]1c2nn(C(F)F)c(-c3cc(F)c(F)c(F)c3)c2CCN1C(=O)c1ccc2ncccc2c1` [Example 233, (R)-(2-(Difluoromethyl)-7-methyl-3-(3,4,5-trifluorophenyl)-2,4,5,7-tetrahydro-6H-pyrazolo[3,4-c]pyridin-6-yl)(quinolin-6-yl)methanone], 550 nM. `Cc1nc2ccc(C(=O)N3CCc4c(nn(C)c4-c4cc(Cl)cc(Cl)c4)[C@@H]3C)cc2o1` [Example 172, (S)-(3-(3,5-Dichlorophenyl)-2,7-dimethyl-2,4,5,7-tetrahydro-6H-pyrazolo[3,4-c]pyridin-6-yl)(2-methylbenzo[d]oxazol-6-yl)methanone] had an IC50 of 4.89 nM. Same read-out and setting: for `Cn1nc2c(c1-c1ccccc1)CCN(C(=O)c1ccc3ncccc3c1)C2` [Example 90, (2-Methyl-3-phenyl-2,4,5,7-tetrahydro-6H-pyrazolo[3,4-c]pyridin-6-yl)(quinolin-6-yl)methanone] the value was 227 nM. `Cn1nc2c(c1-c1ccccc1)CCN(C(=O)c1cccc(O)c1Cl)C2` [Example 12, (2-Chloro-3-hydroxyphenyl)(2-methyl-3-phenyl-2,4,5,7-tetrahydro-6H-pyrazolo[3,4-c]pyridin-6-yl)methanone] returned an IC50 of 3420 nM. Compared with the last molecule, the IC50 is about 15-fold higher. Same read-out and setting: next, `Cn1nc2c(c1-c1ccccc1)CCN(C(=O)c1cccc3c1NC(=O)CO3)C2` [Example 26, 5-(2-Methyl-3-phenyl-4,5,6,7-tetrahydro-2H-pyrazolo[3,4-c]pyridine-6-carbonyl)-2H-benzo[b][1,4]oxazin-3(4H)-one]: 2460 nM.

As to `COc1ccnc(C(=O)N2CCc3c(nn(C)c3-c3cc(F)c(F)c(F)c3)[C@@H]2C)c1` [Example 309, [(7S)-2,7-Dimethyl-3-(3,4,5-trifluorophenyl)-5,7-dihydro-4H-pyrazolo[3,4-c]pyridin-6-yl]-(4-methoxy-2-pyridyl)methanone], half-maximal inhibition (IC50) was put at 219 nM. Take `C[C@H]1c2nn(C)c(-c3cc(F)c(F)c(F)c3)c2CCN1C(=O)c1c[nH]c2ccncc12` [Example 218, (S)-(2,7-Dimethyl-3-(3,4,5-trifluorophenyl)-2,4,5,7-tetrahydro-6H-pyrazolo[3,4-c]pyridin-6-yl)(1H-pyrrolo[3,2-c]pyridin-3-yl)methanone]: the IC50 was 35.2 nM. With `Cc1ncn(-c2cccc(C(=O)N3CCc4c(nn(C)c4-c4cc(F)c(F)c(F)c4)[C@@H]3C)c2)n1` [Example 276, [(7S)-2,7-Dimethyl-3-(3,4,5-trifluorophenyl)-5,7-dihydro-4H-pyrazolo[3,4-c]pyridin-6-yl]-[3-(3-methyl-1,2,4-triazol-1-yl)phenyl]methanone], the IC50 was determined as 145 nM.

As for `CCc1nc(C(=O)N2CCc3c(nn(C)c3-c3cccc(Cl)c3)[C@@H]2C)nn1-c1ccccc1F` [Example 118, (S)-(3-(3-Chlorophenyl)-2,7-dimethyl-2,4,5,7-tetrahydro-6H-pyrazolo[3,4-c]pyridin-6-yl)(5-ethyl-1-(2-fluorophenyl)-1H-1,2,4-triazol-3-yl)methanone], the IC50 is 13.8 nM. In turn, `CCC1c2nn(C)c(-c3cccc(F)c3)c2CCN1C(=O)c1ccc2ncccc2c1` (stereo not shown) [Example 136, (7-Ethyl-3-(3-fluorophenyl)-2-methyl-2,4,5,7-tetrahydro-6H-pyrazolo[3,4-c]pyridin-6-yl)(quinolin-6-yl)methanone] registered an IC50 of 31.4 nM. Compared with the last molecule, the IC50 is about 2.3-fold higher.
